# Earlier results, collected in patent US20030044472A1, “METHOD AND SYNERGISTIC COMPOSITION FOR TREATING ATTENTION DEFICIT/HYPERACTIVITY DISORDER” (DexGen-Intellectual Property, Homocysteine, Inc., priority 2001, published 2003).
# Where a name gives a salt, the structure may show the parent alone.
# What was measured:
# ADHD children [1] = details: double blind clinical study
# ADHD children [2] = details: supplements at 6 mg/lb. of the child
SMILES,test score improvements vs. placebo (ADHD children [1]),hyperactivity (ADHD children [2])
"COC(=O)C(c1ccccc1)C1CCCCN1 (centres unmarked) [Ritalin, methylphenidate hydrochloride]",significant test score improvements,–
[Mg+2] [magnesium],–,a decrease in hyperactivity
